Results from patent publication US11180496B2 (Daewoong Pharmaceutical Co., Ltd., priority 2017, dated 2021).

Experiments:
ITK = molecular target: T1, ITK (Homo sapiens, UniProt Q08881); experiment: ITK inhibitory activity, ADP-Glo + ITK Kinase enzyme system kit (Promega); format: biochemical; settings: ITK enzyme 0.4 ng/uL, ATP 25 uM, 15 min preincubation, luminescence, duplicate
T1 construct: purchased Promega
T1 sequence (Q08881 1-620): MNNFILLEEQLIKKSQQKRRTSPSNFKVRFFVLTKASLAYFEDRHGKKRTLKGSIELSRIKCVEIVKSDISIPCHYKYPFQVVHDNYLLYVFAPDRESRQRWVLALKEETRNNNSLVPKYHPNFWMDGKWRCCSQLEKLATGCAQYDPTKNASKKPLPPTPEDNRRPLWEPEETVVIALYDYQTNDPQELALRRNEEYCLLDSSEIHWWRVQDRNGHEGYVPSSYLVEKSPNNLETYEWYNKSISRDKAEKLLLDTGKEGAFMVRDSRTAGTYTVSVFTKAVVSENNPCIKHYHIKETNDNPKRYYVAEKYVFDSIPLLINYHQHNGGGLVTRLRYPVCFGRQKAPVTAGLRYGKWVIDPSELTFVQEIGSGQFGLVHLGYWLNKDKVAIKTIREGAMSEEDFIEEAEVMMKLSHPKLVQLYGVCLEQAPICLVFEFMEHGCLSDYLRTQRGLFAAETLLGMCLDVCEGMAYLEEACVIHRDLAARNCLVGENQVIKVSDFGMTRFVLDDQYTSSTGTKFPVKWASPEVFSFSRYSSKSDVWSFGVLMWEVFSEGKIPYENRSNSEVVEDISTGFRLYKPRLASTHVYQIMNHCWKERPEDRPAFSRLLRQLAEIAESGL
Description: (§1) The inhibitory activity against BTK and ITK of the compounds prepared in Examples above were measured as follows.
(§2) The inhibitory activity against ITK was evaluated using ‘ADP-Glo™+ITK Kinase enzyme system’ kit from Promega. […] 5 uL of substrate and 5 uL of ATP prepared at a final concentration of 25 uM were added to all wells of the plate after completion of the reaction, and allowed to react at 30° C. for 1 hour. All wells of the plate after completion of the reaction were treated with 25 uL of ADP-Glo™ reagent and reacted at 30° C. for 40 minutes. Then, 50 uL of the kinase detection buffer was applied to all wells of the plate, and then the light was blocked and reacted at 30° C. for 30 minutes. For the plate for which all reactions were completed, the luminescence was measured and the results were calculated. The evaluation was performed in duplicate. The respective values of negative and positive controls, depending on whether the enzymes were added without treatment of the compound, were determined, and IC50 was calculated based on the values.

BTK = molecular target: T2, BTK (Homo sapiens, UniProt Q06187); experiment: BTK inhibitory activity, ADP-Glo + BTK Kinase enzyme system kit (Promega); format: biochemical; settings: BTK enzyme 1 ng/uL, ATP 10 uM, 15 min preincubation, luminescence, duplicate
T2 construct: purchased Promega
T2 sequence (Q06187 whole entry): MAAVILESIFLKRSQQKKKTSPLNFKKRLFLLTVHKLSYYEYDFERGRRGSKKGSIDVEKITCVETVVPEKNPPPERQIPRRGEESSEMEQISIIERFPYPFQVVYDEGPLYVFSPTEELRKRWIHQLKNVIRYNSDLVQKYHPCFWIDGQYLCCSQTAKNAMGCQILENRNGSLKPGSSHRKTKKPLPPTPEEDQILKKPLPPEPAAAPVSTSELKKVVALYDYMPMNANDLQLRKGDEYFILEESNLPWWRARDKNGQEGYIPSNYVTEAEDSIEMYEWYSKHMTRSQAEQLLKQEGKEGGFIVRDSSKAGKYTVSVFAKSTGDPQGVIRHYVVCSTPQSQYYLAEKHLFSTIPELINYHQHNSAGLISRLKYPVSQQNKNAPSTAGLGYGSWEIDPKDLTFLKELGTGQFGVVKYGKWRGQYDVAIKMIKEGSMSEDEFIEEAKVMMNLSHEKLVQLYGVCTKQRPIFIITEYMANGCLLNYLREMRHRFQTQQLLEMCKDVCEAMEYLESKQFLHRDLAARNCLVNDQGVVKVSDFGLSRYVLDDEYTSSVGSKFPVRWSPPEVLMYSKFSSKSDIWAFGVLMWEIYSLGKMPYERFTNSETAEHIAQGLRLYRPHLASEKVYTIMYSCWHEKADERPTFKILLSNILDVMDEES
Description: as §1
as §2, with “against BTK” for “against ITK”, “using ‘ADP-Glo™+BTK” for “using ‘ADP-Glo™+ITK”, “of 10” for “of 25”

| Structure (SMILES) | IC50 (ITK) [nM] | IC50 (BTK) [nM] |
| --- | --- | --- |
| C=CC(=O)N1CC(n2nc(-c3ccc(C(=O)Nc4ccccn4)cc3Cl)c3c(N)nccc32)C1 [Example 63, 4-(1-(1-acryloylazetidin-3-yl)-4-amino-1H-pyrazolo[4,3-c]pyridin-3-yl)-3-chloro-N-(pyridin-2-yl)benzamide] | 30.1 | 3.1 |
| C=CC(=O)N1CCC[C@@H](n2nc(-c3ccc(C(=O)Nc4ccccc4)cc3)c3c(N)ncc(Cl)c32)C1 [Example 23, (R)-4-(1-(1-acryloylpiperidin-3-yl)-4-amino-7-chloro-1H-pyrazolo[4,3-c]pyridin-3-yl)-N-phenyl benzamide] | 48 | 1.2 |
| C=CC(=O)N1CCC[C@@H](n2nc(-c3ccc(C(=O)Nc4ccccn4)cc3Cl)c3c(N)ncc(C=C)c32)C1 [Example 69, (R)-4-(1-(1-acryloylpiperidin-3-yl)-4-amino-7-vinyl-1H-pyrazolo[4,3-c]pyridin-3-yl)-3-chloro-N-(pyridin-2-yl)benzamide] | 2.9 | 2 |
| C=CC(=O)N1CCC[C@@H](n2nc(-c3ccc(C(=O)Nc4ccccn4)cc3F)c3c(N)nccc32)C1 [Example 40, (R)-4-(1-(1-acryloylpiperidin-3-yl)-4-amino-1H-pyrazolo[4,3-c]pyridin-3-yl)-3-fluoro-N-(pyridin-2-yl)benzamide] | 6.4 | 2.7 |
| C=CC(=O)N1CCC[C@@H](n2nc(-c3ccc(C(=O)N(C(=O)C=C)c4cc(F)ccn4)cc3)c3c(N)nccc32)C1 [Example 42, (R)—N-acryloyl-4-(1-(1-acryloylpiperidin-3-yl)-4-amino-1H-pyrazolo[4,3-c]pyridin-3-yl)-N-(4-fluoropyridin-2-yl)benzamide] | 241 | 66.3 |
| C=CC(=O)N1CCCC(n2nc(-c3ccc(Oc4ccccc4)cc3)c3c(N)ncc(Cc4ccccc4)c32)C1 (stereo not drawn) [Example 6, 1-(3-(4-amino-7-benzyl-3-(4-phenoxyphenyl)-1H-pyrazolo[4,3-c]pyridin-1-yl)piperidin-1-yl)prop-2-en-1-one] | 288 | 29.9 |
| C=CC(=O)N1CCC[C@@H](n2nc(-c3ccc(C(=O)Nc4ccccc4)cc3)c3c(N)ncc(-c4cnn(C)c4)c32)C1 [Example 26, (R)-4-(1-(1-acryloylpiperidin-3-yl)-4-amino-7-(1-methyl-1H-pyrazol-4-yl)-1H-pyrazolo[4,3-c]pyridin-3-yl)-N-phenyl benzamide] | 59.3 | 2.7 |
| C=CC(=O)N1CCC[C@@H](n2nc(Nc3cnn(C4CC4)c3)c3c(N)nccc32)C1 [Example 61, (R)-1-(3-(4-amino-3-(1-cyclopropyl-1H-pyrazol-4-ylamino)-1H-pyrazolo[4,3-c]pyridin-1-yl)piperidin-1-yl)prop-2-en-1-one] | > 1000 | 187 |
| C=CC(=O)N1CCC[C@@H](n2nc(-c3ccc(C(=O)Nc4ccccn4)cc3Cl)c3c(N)ncc(-c4cnn(C)c4)c32)C1 [Example 67, (R)-4-(1-(1-acryloylpiperidin-3-yl)-4-amino-7-(1-methyl-1H-pyrazol-4-yl)-1H-pyrazolo[4,3-c]pyridin-3-yl)-3-chloro-N-(pyridin-2-yl)benzamide] | 2.7 | 2 |
| C=CC(=O)N1CC[C@H](n2nc(-c3ccc(C(=O)Nc4ccccc4)cc3)c3c(N)ncc(-c4cnn(C(F)F)c4)c32)C1 [Example 46, (S)-4-(1-(1-acryloylpyrrolidin-3-yl)-4-amino-7-(1-(difluoromethyl)-1H-pyrazol-4-yl)-1H-pyrazolo[4,3-c]pyridin-3-yl)-N-phenylbenzamide] | > 1000 | > 400 |
| C=CC(=O)N1CCC[C@@H](n2nc(-c3ccc(C(=O)Nc4ccccc4)cc3)c3c(N)ncc(Br)c32)C1 [Example 24, (R)-4-(1-(1-acryloylpiperidin-3-yl)-4-amino-7-bromo-1H-pyrazolo[4,3-c]pyridin-3-yl)-N-phenyl benzamide] | 36.8 | 1.2 |

The remaining molecules from weak to strong by IC50 (ITK), led by results:

| IC50 (ITK) [nM] | IC50 (BTK) [nM] | Structure (SMILES) |
| --- | --- | --- |
| 293 | 2.3 | C=CC(=O)N1CCC[C@@H](n2nc(-c3ccc(C(=O)Nc4ccccc4)cc3)c3c(N)ncc(-c4cnn(C5CCOCC5)c4)c32)C1 [Example 34, (R)-4-(1-(1-acryloylpiperidin-3-yl)-4-amino-7-(1-(tetrahydro-2H-pyran-4-yl)-1H-pyrazol-4-yl)-1H-pyrazolo[4,3-c]pyridin-3-yl)-N-phenylbenzamide] |
| 277 | 5.5 | C#CC(=O)N1CCC(n2nc(-c3ccc(Oc4ccccc4)cc3)c3c(N)nccc32)CC1 [Example 4, 1-(4-(4-amino-3-(4-phenoxyphenyl)-1H-pyrazolo[4,3-c]pyridin-1-yl)piperidin-1-yl)prop-2-yn-1-one] |
| 186 | 2.6 | C=CC(=O)N1CCC[C@@H](n2nc(-c3ccc(C(=O)Nc4ccccc4)cc3)c3c(N)ncc(-c4cnn(CCN5CCOCC5)c4)c32)C1 [Example 38, (R)-4-(1-(1-acryloylpiperidin-3-yl)-4-amino-7-(1-(2-morpholinoethyl)-1H-pyrazol-4-yl)-1H-pyrazolo[4,3-c]pyridin-3-yl)-N-phenyl benzamide] |
| 124 | 6.4 | C=C(C)C(=O)N1CCC[C@@H](n2nc(-c3ccc(C(=O)Nc4ccccn4)cc3F)c3c(N)ncc(Cl)c32)C1 [Example 55, (R)-4-(4-amino-7-chloro-1-(1-methacryloylpiperidin-3-yl)-1H-pyrazolo[4,3-c]pyridin-3-yl)-3-fluoro-N-(pyridin-2-yl)benzamide] |
| 105 | > 1.56 | C=CC(=O)N1CCC[C@@H](n2nc(-c3ccc(C(=O)Nc4ccccc4)cc3)c3c(N)ncc(C)c32)C1 [Example 44, (R)-4-(1-(1-acryloylpiperidin-3-yl)-4-amino-7-methyl-1H-pyrazolo[4,3-c]pyridin-3-yl)-N-phenyl benzamide] |
| 51.6 | 1.6 | C=CC(=O)N1CC(n2nc(-c3ccc(C(=O)Nc4ccccn4)cc3F)c3c(N)nccc32)C1 [Example 52] |
| 37.7 | 1.4 | C=CC(=O)N1CCCC(n2nc(-c3ccc(Oc4ccccc4)cc3)c3c(N)nccc32)C1 (stereo not drawn) [Example 1, 1-(3-(4-amino-3-(4-phenoxyphenyl)-1H-pyrazolo[4,3-c]pyridin-1-yl)piperidin-1-yl)prop-2-en-1-one] |
| 36.4 | 3 | C=CC(=O)N1CCCC(n2nc(-c3ccc(Oc4ccccc4)cc3)c3c(N)ncc(-c4cnn(C)c4)c32)C1 (stereo not drawn) [Example 7, 1-(3-(4-amino-7-(1-methyl-1H-pyrazol-4-yl)-3-(4-phenoxyphenyl)-1H-pyrazolo[4,3-c]pyridin-1-yl)piperidin-1-yl)prop-2-en-1-one] |
| 10.8 | 2.1 | C=CC(=O)N1CCCC(n2nc(-c3ccc(Oc4ccccc4)cc3)c3c(N)ncc(Br)c32)C1 (stereo not drawn) [Example 10, 1-(3-(4-amino-7-bromo-3-(4-phenoxyphenyl)-1H-pyrazolo[4,3-c]pyridin-1-yl)piperidin-1-yl)prop-2-en-1-one] |
| 3.3 | 1.2 | C=CC(=O)N1CCC[C@@H](n2nc(-c3ccc(C(=O)Nc4ccccn4)cc3F)c3c(N)ncc(Cl)c32)C1 [Example 49, (R)-4-(1-(1-acryloylpiperidin-3-yl)-4-amino-7-chloro-1H-pyrazolo[4,3-c]pyridin-3-yl)-3-fluoro-N-(pyridin-2-yl)benzamide] |
